Active and inactive are the calls of the source. No rule for the calls is given here.

This data set deals with rodent carcinogenicity bioassays, tumor incidence. Briefly: CCRIS carcinogenicity studies. The method in brief: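 NCI-built, expert-reviewed records of carcinogenicity and related test outcomes (mutagenicity, tumor promotion/inhibition) compiled from published and report sources, historical span 1985-2011, not updated.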

On to `COc1ccc(C(=O)/C(Br)=C\C(=O)O)cc1`, for which the carcinogen call is “inactive; negative” (Species: MOUSE, Strain/Sex: B6C3F1/FEMALE, Route: INTRAPERITONEAL, Dose: 0, 12, 24 MG/KG 3/WK FOR 104 WK (STUDY DURATION: 104-105 WK), Dose: 0, 12, 24 MG/KG 3/WK FOR 104 WK (STUDY DURATION: 104-105 WK)); “inactive; negative” (Species: MOUSE, Strain/Sex: B6C3F1/MALE, Route: INTRAPERITONEAL, Dose: 0, 12, 24 MG/KG 3/WK FOR 104 WK (STUDY DURATION: 104-105 WK), Dose: 0, 12, 24 MG/KG 3/WK FOR 104 WK (STUDY DURATION: 104-105 WK)); “active; positive” (Species: RAT, Strain/Sex: F344/FEMALE, Route: INTRAPERITONEAL, Dose: 0, 7, 14 MG/KG 3/WK FOR 104 WK (STUDY DURATION: 104-105 WK), Dose: 0, 7, 14 MG/KG 3/WK FOR 104 WK (STUDY DURATION: 104-105 WK), Tumor Site: Type of Lesion: MAMMARY GLAND: FIBROADENOMA); “active; positive” (Species: RAT, Strain/Sex: F344/MALE, Route: INTRAPERITONEAL, Dose: 0, 7, 14 MG/KG 3/WK FOR 104 WK (STUDY DURATION: 104-105 WK), Dose: 0, 7, 14 MG/KG 3/WK FOR 104 WK (STUDY DURATION: 104-105 WK), Tumor Site: Type of Lesion: MULTIPLE SITES: MALIGNANT MESOTHELIOMA, TUNICA VAGINALIS: MESOTHELIOMA).
As for `CC(=O)N(O)c1ccc2c(c1)Cc1ccccc1-2`, the carcinogen call is “active; positive” (Species: GUINEA PIG, Strain/Sex: FEMALE, Route: INTRAPERITONEAL, Dose: 1.5 G/100 G SUSPENDED IN SALINE-GUM ACACIA 3/WK FOR 27 MO, Tumor Site: Type of Lesion: INJECTION SITE: SARCOMA); “active; positive” (Species: GUINEA PIG, Strain/Sex: MALE, Route: ORAL, Dose: 0.024-0.064% IN DIET (AMOUNT VARIED BECAUSE OF TOXICITY), Tumor Site: Type of Lesion: INTESTINES (SMALL): ADENOCARCINOMA); “active; positive” (Species: HAMSTER, Strain/Sex: MALE, Route: INTRAPERITONEAL, Dose: 1.5 G/100 G SUSPENDED IN SALINE-GUM ACACIA 3/WK FOR 6-8 MO, Tumor Site: Type of Lesion: PERITONEAL CAVITY: FIBROSARCOMA); “active; positive” (Species: HAMSTER, Strain/Sex: MALE, Route: ORAL, Dose: 0.032% IN DIET AS 5-10 G OF GLUCOSE TRITURATE/KG DIET FOR 7.5 MO, Tumor Site: Type of Lesion: FORESTOMACH: PAPILLOMA, SQUAMOUS CELL CARCINOMA, LIVER: BENIGN TUMOR); “active; positive” (Species: MOUSE, Strain/Sex: B6C3F1/MALE, Route: INTRAPERITONEAL, Dose: 0, 0.025, 0.08, 0.23 UMOL/G BW IN 5 µL/G BW OF 80% DMSO ONCE AT 12 D OF AGE (STUDY DURATION: 9 MO), Dose: 0, 0.025, 0.08, 0.23 UMOL/G BW IN 5 µL/G BW OF 80% DMSO ONCE AT 12 D OF AGE (STUDY DURATION: 9 MO), Tumor Site: Type of Lesion: LIVER: HEPATOMA); “active; positive” (Species: MOUSE, Strain/Sex: B6C3F2 (BRACHYMORPHOIC)/MALE, Route: INTRAPERITONEAL, Dose: 0, 0.025, 0.08, 0.23 UMOL/G BW IN 5 µL/G BW OF 80% DMSO ONCE AT 12 D OF AGE (STUDY DURATION: 9 MO), Dose: 0, 0.025, 0.08, 0.23 UMOL/G BW IN 5 µL/G BW OF 80% DMSO ONCE AT 12 D OF AGE (STUDY DURATION: 9 MO), Tumor Site: Type of Lesion: LIVER: HEPATOMA). Besides, the carcinogen call was “active; positive” (Species: RABBIT, Strain/Sex: NZW/MALE,FEMALE, Route: INTRAPERITONEAL, Dose: 32.3 MG/KG IN 3 ML/KG SALINE 3/WK FOR 40 WK, Tumor Site: Type of Lesion: PERITONEAL CAVITY: SARCOMA); “active; positive” (Species: RAT, Strain/Sex: CRBL/FEMALE, Route: INTRAPERITONEAL, Dose: 4.O MG/100 G 3/WK FOR 2 WK THEN 3.0 MG/100 G 3/WK FOR 2 WK, Tumor Site: Type of Lesion: MAMMARY GLAND: BENIGN TUMOR, NEOPLASM); “active; positive” (Species: RAT, Strain/Sex: F344/FEMALE, Route: INTRAPERITONEAL, Dose: 0.10 MMOL/RAT (TOTAL DOSE), Tumor Site: Type of Lesion: LIVER: CHOLANGIOMA, CARCINOMA); “active; positive” (Species: RAT, Strain/Sex: F344/MALE, Route: ORAL, Dose: 160 UG/G IN DIET FOR 12 WK, Tumor Site: Type of Lesion: LIVER: HEPATOMA); “active; positive” (Species: RAT, Strain/Sex: HOLTZMAN/FEMALE, Route: INTRAPERITONEAL, Dose: 2-AAF EQUIV OF 2.5 MG SUSPENDED IN SALINE-GUM ACACIA 3/WK FOR 3 WK THEN 3.5 MG FOR 2 WK THEN 3.0 MG FOR 9 WK, Tumor Site: Type of Lesion: MAMMARY GLAND: NEOPLASM, PERITONEAL CAVITY: SARCOMA); “active; positive” (Species: RAT, Strain/Sex: HOLTZMAN/FEMALE, Route: INTRAPERITONEAL, Dose: 2-AAF EQUIV OF 4 MG IN 0.4 ML SALINE-GUM ACACIA 3/WK FOR 4 WK, Tumor Site: Type of Lesion: MAMMARY GLAND: NEOPLASM). In addition, the carcinogen call is “active; positive” (Species: RAT, Strain/Sex: HOLTZMAN/FEMALE, Route: ORAL, Dose: 0.032% IN GRAIN DIET FOR 4 MO, Tumor Site: Type of Lesion: MAMMARY GLAND: NEOPLASM, FORESTOMACH: PAPILLOMA, CARCINOMA, EAR (DUCT): NEOPLASM, INTESTINES (SMALL), Tumor Site: Type of Lesion: MAMMARY GLAND: NEOPLASM, FORESTOMACH: PAPILLOMA, CARCINOMA, EAR (DUCT): NEOPLASM, INTESTINES (SMALL)); “active; positive” (Species: RAT, Strain/Sex: HOLTZMAN/MALE, Route: INTRAPERITONEAL, Dose: 2-AAF EQUIV OF 2.5 MG SUSPENDED IN SALINE-GUM ACACIA 3/WK FOR 3 WK THEN 3.5 MG 3/WK FOR 3 WK THEN 3.0 MG 3/WK FOR 9 WK, Tumor Site: Type of Lesion: EAR (DUCT): NEOPLASM, PERITONEAL CAVITY: SARCOMA, INTESTINES (SMALL): NEOPLASM, Tumor Site: Type of Lesion: EAR (DUCT): NEOPLASM, PERITONEAL CAVITY: SARCOMA, INTESTINES (SMALL): NEOPLASM); “active; positive” (Species: RAT, Strain/Sex: HOLTZMAN/MALE, Route: ORAL, Dose: 0.032% IN GRAIN DIET FOR 3 MO, Tumor Site: Type of Lesion: LIVER: NEOPLASM, FORESTOMACH: PAPILLOMA, CARCINOMA); “active; positive” (Species: RAT, Strain/Sex: HOLTZMAN/MALE, Route: SUBCUTANEOUS, Dose: 3.2 MG IN 0.2 ML TRICAPRYLIN 2/WK FOR 4 WK, Tumor Site: Type of Lesion: INJECTION SITE: SARCOMA, EAR (DUCT): CARCINOMA); “active; positive” (Species: RAT, Strain/Sex: NIHBL/MALE,FEMALE, Route: ORAL, Dose: 80 UG/G IN DIET FOR 64 WK, Tumor Site: Type of Lesion: LIVER: HEPATOMA, CHOLANGIOMA); “active; positive” (Species: RAT, Strain/Sex: SPRAGUE-DAWLEY/FEMALE, Route: INTRAPERITONEAL, Dose: 0.10, 0.17 MMOL/RAT (TOTAL DOSE), Tumor Site: Type of Lesion: MAMMARY GLAND: ADENOCARCINOMA). In addition, the carcinogen call is, setting by setting: (Species: RAT, Strain/Sex: STRAIN-CD/FEMALE, Route: INTRAPERITONEAL, Dose: 0, 67 UMOL/KG BW IN DMSO 3/WK FOR 4 WK (STUDY DURATION: 61 WK), Tumor Site: Type of Lesion: MAMMARY GLAND: ADENOCARCINOMA, HEMATOPOIETIC SYSTEM: LEUKEMIA, LYMPHOMA) “active; positive”; (Species: RAT, Strain/Sex: STRAIN-CD/FEMALE, Route: ORAL, Dose: 0.025% IN GRAIN DIET FOR 4 MO, Tumor Site: Type of Lesion: MAMMARY GLAND: CARCINOMA, LIVER: BENIGN TUMOR, NEOPLASM, EAR (DUCT): CARCINOMA, Tumor Site: Type of Lesion: MAMMARY GLAND: CARCINOMA, LIVER: BENIGN TUMOR, NEOPLASM, EAR (DUCT): CARCINOMA) “active; positive”.

These data come from PubChem BioAssay AID1259411 (Chemical Carcinogenesis Research Information System (CCRIS), 2018).
